The record followed here is ChEMBL document CHEMBL1201862, “PubChem BioAssay data set” (2004).

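In this assay, cells in 96-well plates receive the compound at five concentrations for 48 hours. Endpoints are linearly interpolated between the surrounding concentrations. Abbreviation: GI50, concentration required for 50% inhibition of growth.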 The source made the active and inactive calls. No stated cut-off is given here; in the data, active = GI50 up to about 1.1 µM and inactive = higher.

Some test systems named below: MDA-MB-435; SNB-75; NCI-H226; HCT-116; SF-295; NCI-H460; UACC-62; HOP-62; UACC-257; SK-OV-3; OVCAR-8; HCT-15; MCF7; M14; HT-29; A498; NCI-H23; OVCAR-5.
Assay in all cases: NCI-60 cell line screen, 48 h

Take `COc1ccc(C[N+](C)(C)N)cc1OC`: the GI50 was > 10 µM (inactive) with MDA-MB-435; > 10 µM (inactive) in the assay with SNB-75; > 100 µM (inactive) in the assay on NCI-H226; > 10 µM (inactive) in the assay with HCT-116; > 10 µM (inactive) in the assay on SF-295; > 100 µM (inactive) in the assay on NCI-H460. For the same compound, the GI50 was > 100 µM (inactive) in the assay with UACC-62; > 10 µM (inactive) with HOP-62; > 10 µM (inactive) in the assay on UACC-257; > 10 µM (inactive) in the assay on SK-OV-3; > 10 µM (inactive) with OVCAR-8; above 10 µM in the assay with HCT-15. In addition, the GI50 is > 10 µM (inactive) with MCF7; > 10 µM (inactive) in the assay on M14; > 10 µM (inactive) in the assay with HT-29; > 100 µM (inactive) in the assay on A498; > 10 µM (inactive) in the assay with NCI-H23; > 10 µM (inactive) in the assay with OVCAR-5.
With `C=CCc1c(O)c2ccccc2[nH]c1=O`, the GI50 with MDA-MB-435, in the assay with SNB-75, in the assay on NCI-H226, in the assay on HCT-116, with SF-295 and in the assay with NCI-H460 was > 100 µM (inactive) each time. Moreover, the GI50 was > 100 µM (inactive) in the assay with HOP-62; > 100 µM (inactive) in the assay with UACC-257; > 100 µM (inactive) with OVCAR-8; above 100 µM in the assay with HCT-15; > 100 µM (inactive) in the assay with MCF7; > 100 µM (inactive) with HT-29. In addition, the GI50 in the assay with A498, with NCI-H23 and in the assay with OVCAR-5 was > 100 µM (inactive) throughout.
As to `c1ccc(C[P+]2(c3ccccc3)c3ccccc3-c3ccccc32)cc1`, the GI50 in the assay with MDA-MB-435, in the assay with SNB-75, with NCI-H226, in the assay on HCT-116, in the assay with SF-295 and in the assay with UACC-62 was > 100 µM (inactive) each time. The GI50 is > 100 µM (inactive) in the assay on HOP-62; > 100 µM (inactive) with UACC-257; > 100 µM (inactive) in the assay on SK-OV-3; > 100 µM (inactive) in the assay with OVCAR-8; above 100 µM in the assay with HCT-15; > 100 µM (inactive) with MCF7. Also, the GI50 in the assay with M14 and in the assay with NCI-H23 was > 100 µM (inactive) in each case.
As to `COc1ccc(-c2c(C#N)c(-c3ccccc3)n(NS(=O)(=O)c3ccccc3)c(=O)c2C#N)cc1`, the GI50 with MDA-MB-435 is > 100 µM (inactive); with SNB-75, 50.8 µM (inactive); in the assay on NCI-H226, > 100 µM (inactive); with HCT-116 it was > 100 µM (inactive); in the assay with SF-295 it was > 100 µM (inactive); in the assay on NCI-H460, > 100 µM (inactive). Further, the GI50 in the assay on UACC-62 was 79.8 µM (inactive); in the assay on HOP-62, 95.1 µM (inactive); with UACC-257, > 100 µM (inactive); in the assay with SK-OV-3, > 100 µM (inactive); with OVCAR-8, 97.1 µM (inactive); in the assay on HCT-15 it was above 100 µM. Moreover, the GI50 is 50.5 µM (inactive) in the assay on MCF7; > 100 µM (inactive) with M14; > 100 µM (inactive) in the assay on HT-29; > 100 µM (inactive) with A498; > 100 µM (inactive) with OVCAR-5.
In the case of `COCC(O)Cn1ccnc1[N+](=O)[O-]` (configuration not stated) [MISONIDAZOLE], the GI50 in the assay with NCI-H226, in the assay on HCT-116, in the assay on SF-295, in the assay on NCI-H460, in the assay on HOP-62 and in the assay on UACC-257 was > 100 µM (inactive) throughout. The GI50 is > 100 µM (inactive) with SK-OV-3; > 100 µM (inactive) with OVCAR-8; above 100 µM with HCT-15; > 100 µM (inactive) in the assay with M14; > 100 µM (inactive) with HT-29; > 100 µM (inactive) with NCI-H23. Moreover, the GI50 with OVCAR-5 is > 100 µM (inactive).
